Consider 57 compounds from patent US11484032B2, “Compositions for inhibition of insect sensing” (Vanderbilt University, priority 2011, dated 2022).

One assay has as its target T1, AgORco+AgOR10 (Anopheles gambiae, UniProt Q7QCC7).
T1 construct: expressed in transfected cells
T1 sequence (Q7QCC7 1-478): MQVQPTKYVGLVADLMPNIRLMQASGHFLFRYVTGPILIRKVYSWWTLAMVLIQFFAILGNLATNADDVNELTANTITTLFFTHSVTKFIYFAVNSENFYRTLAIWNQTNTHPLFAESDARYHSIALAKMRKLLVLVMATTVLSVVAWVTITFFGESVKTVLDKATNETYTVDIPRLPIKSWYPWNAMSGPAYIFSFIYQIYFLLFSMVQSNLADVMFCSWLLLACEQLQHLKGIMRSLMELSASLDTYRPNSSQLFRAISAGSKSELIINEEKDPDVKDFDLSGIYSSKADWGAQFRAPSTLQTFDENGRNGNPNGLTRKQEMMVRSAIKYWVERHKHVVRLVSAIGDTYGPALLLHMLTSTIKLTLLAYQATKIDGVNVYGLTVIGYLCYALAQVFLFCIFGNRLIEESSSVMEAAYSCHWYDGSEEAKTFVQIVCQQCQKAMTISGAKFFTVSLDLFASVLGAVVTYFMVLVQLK
The assay can be described thus: Fluo-4 Ca2+ imaging, HEK293 cells expressing Orco+AgOR10. It counts as cell-based. Also noted: Orco 10 + Orco Angatonist % Reduction / Orco 10 + Orco Agonist % of control: concentration or dose not given beside the values. As to conditions: 10 + Orco; potentiator mode. The text has this: For transient transfections, ORs were cloned into pCl (Promega) and transfected into Flp-In™ T-REx™293 cell lines (Invitrogen) with Fu GENE6 (Roche). For the creation of stable cell lines, a cell culture expression vector capable of expressing Orco in conjunction with a conventional OR, pcDNA5/FRT/TO (Invitrogen) was modified to create two individual expression cassettes each under the control of a separate CMV/Tet02 promoter and a BGH poly-adenylation signal. Cells (as above) were transfected with the modified pcDNA5 plasmid along with POG44 (a Flp recombinase expression plasmid) to facilitate site-specific recombination. Stable cell lines were selected using Hygromycin B (Invitrogen). Cells were maintained in DMEM (Invitrogen) supplemented with 10% Tetracycline-free FBS (HyClone) and 15 ng/ml Blasticidin. For fluorometric Ca2+ measurements, stable lines expressing ORs of interest were seeded at 20,000 cells/well in black wall, poly-lysine coated 384-well cell culture plates (Greiner) and treated with […] tetracycline (Sigma) overnight to induce OR expression. Cells were dye-loaded with 1.8 uM Fluo-4 AM (Molecular Probes), 2.5 mM Probenecid (Molecular Probes) in assay buffer (20 mM HEPES, IX HBSS) for 45 minutes at 37° C. in 5% CO2 prior to each assay. Ca^2+ mobilization was assayed in an FDSS6000 (Hamamatsu). Baseline readings were taken for 20 s before automated addition of compound previously diluted in DMSO and assay buffer. Ratios were described as Maximum/Minimum response and each response was normalized to the maximum responder.
As part of an ongoing, cell based calcium imaging screen for novel small-molecule modulators of AgORs that might disrupt olfactory-driven mosquito behaviors (Rinker et al manuscript in preparation), the inventors identified a number of compounds that activated AgOR10+AgORco-expressing human embryonic kidney (HEK293) cells. One of these compounds, (FIG. 3 A) denoted here as VUAA1, elicited activity consistent with allosteric agonism and was pursued for its novel properties. The identity of VUAA1 was verified using high-resolution mass spectrometry (HRMS) as well as ^1H and ^13C NMR. […] As AgORco was the common element among these functional responses, the inventors postulated that VUAA1 was a potential AgORco agonist.
Regarding `CCn1c(SCCC(=O)O)nnc1-c1cccnc1`, the “Orco 10 + Orco Potentiator % increase” value stood at 15.74%.

`CCCn1c(SCC(=O)NCCc2ccccc2)nnc1-c1cccnc1`: the “Orco 10 + Orco Potentiator % increase” value worked out at 12.58%.

Regarding `CCc1cccc(CC)c1NC(=O)CSc1nnc(C(C)C)n1CC`, the “Orco 10 + Orco Potentiator % increase” value is listed as 13.90%.

The assay is the same for the next values; noted with them: Orco 10 + Orco, antagonist mode.
Take `CCOC(=O)c1cccc(NC(=O)CSc2nnc(CNc3ccc(C)cc3)n2CC)c1`: the “Orco 10 + Orco Angatonist % Reduction” value was 62.21%.

Turning to `Clc1ccccc1CSc1nnc(-c2cccnc2)n1Cc1ccco1`, the “Orco 10 + Orco Angatonist % Reduction” value turned out to be 33.76%.

As to `CCOc1ccc(-n2c(SCc3cc(=O)oc4cc(C)c(C(C)C)cc34)nnc2-c2cccnc2)cc1`, the “Orco 10 + Orco Angatonist % Reduction” value came to 48.28%.

Take `O=C(CSc1nnc(-c2cccnc2)n1Cc1ccco1)c1ccc(Br)cc1`: the “Orco 10 + Orco Angatonist % Reduction” value came out at 7.93%.

As to `CCn1c(SCC(=O)Nc2ccc(N(C)C)cc2)nnc1-c1cccc(C)c1`, the “Orco 10 + Orco Angatonist % Reduction” value was 29.54%.

As to `CCc1ccc(NC(=O)CSc2nnc(-c3cccs3)n2CC)cc1`, the “Orco 10 + Orco Angatonist % Reduction” value came out at 32.93%.

For the compound `CCn1c(SCC(=O)N2c3ccccc3CCc3ccccc32)nnc1-c1ccco1`, the “Orco 10 + Orco Angatonist % Reduction” value came to 13.40%.

Consider `CCn1c(COc2ccc(OC)cc2)nnc1SCC(=O)Nc1cc(OC)ccc1OC`, for which the “Orco 10 + Orco Angatonist % Reduction” value amounted to 7.54%.

For the compound `CCOC(=O)CN(C(=O)CSc1nnc(CNc2ccc(C)cc2C)n1CC)c1ccccc1`, the “Orco 10 + Orco Angatonist % Reduction” value is reported as 57.34%.

Take `Clc1ccc(CSc2nnc(-c3cccnc3)n2Cc2ccco2)c(Cl)c1`: the “Orco 10 + Orco Angatonist % Reduction” value came to 49.50%.

As for `CC(C)c1ccccc1-n1c(SCC(=O)N2CCN(c3ccccc3)CC2)nnc1-c1cccnc1`, the “Orco 10 + Orco Angatonist % Reduction” value was 42.29%.

Take `CCn1c(SCC(=O)Nc2ccc3c(c2)OCCO3)nnc1-c1c[nH]c2ccccc12`: the “Orco 10 + Orco Angatonist % Reduction” value was found to be 17.90%.

As for `CCOC(=O)CN(C(=O)CSc1nnc(COc2ccc(OC)cc2)n1CC)c1ccccc1`, the “Orco 10 + Orco Angatonist % Reduction” value amounted to 49.09%.

As for `CCOC(=O)CN(C(=O)CSc1nnc(CNc2ccc(F)cc2)n1CC)c1ccc(F)cc1`, the “Orco 10 + Orco Angatonist % Reduction” value is reported as 8.24%.

For `COc1cc(Cl)c(C)cc1CSc1nnc(-c2cccnc2)n1Cc1ccco1`, the “Orco 10 + Orco Angatonist % Reduction” value was found to be 28.40%.

`CCn1c(COc2ccccc2)nnc1SCC(=O)Nc1cc(OC)ccc1OC`: the “Orco 10 + Orco Angatonist % Reduction” value came to 38.62%.

Take `O=C(CSc1nnc(-c2cccnc2)n1Cc1ccco1)N1c2ccccc2Sc2ccccc21` [drawing 490]: the “Orco 10 + Orco Angatonist % Reduction” value was 46.34%.

Regarding `Cc1ccc(Nc2nc(CSc3nnc(-c4cccnc4)n3-c3ccccc3C)cs2)cc1`, the “Orco 10 + Orco Angatonist % Reduction” value worked out at 52.47%.

Take `CCn1c(SCC(=O)Nc2ccccc2C(=O)OC)nnc1-c1cccc(C)c1`: the “Orco 10 + Orco Angatonist % Reduction” value was 16.03%.

Turning to `Cc1ccc(-n2c(SCC(=O)N3CCCc4ccccc43)nnc2-c2cccnc2)c(C)c1`, the “Orco 10 + Orco Angatonist % Reduction” value is listed as 26.04%.

Regarding `COc1cc(Cl)c(C)cc1NC(=O)CSc1nnc(-c2cccnc2)n1Cc1ccco1`, the “Orco 10 + Orco Angatonist % Reduction” value turned out to be 25.31%.

`CCn1c(SCC(=O)Nc2ccc(OC)cc2)nnc1-c1ccc2[nH]c(C)c(C)c2c1`: the “Orco 10 + Orco Angatonist % Reduction” value is given as 24.94%.

`CCN(CC)S(=O)(=O)c1ccc(-c2nnc(SCC(=O)N3c4ccccc4CC3C)n2CC)cc1` (stereo not drawn): the “Orco 10 + Orco Angatonist % Reduction” value was determined as 31.53%.

In the case of `CCn1c(CNC(=O)COc2ccc(C(C)C)cc2)nnc1SCC(=O)Nc1ccccc1F`, the “Orco 10 + Orco Angatonist % Reduction” value was found to be 11.35%.

`CCOC(=O)c1c(NC(=O)CSc2nnc(-c3cccnc3)n2Cc2ccco2)sc(C)c1C`: the “Orco 10 + Orco Angatonist % Reduction” value is reported as 30.44%.

Regarding `CCOc1ccc(-n2c(SCc3cc(=O)oc4cc(C)ccc34)nnc2-c2cccnc2)cc1`, the “Orco 10 + Orco Angatonist % Reduction” value is 12.48%.

Regarding `CCn1c(CNC(=O)COc2ccc(C(C)C)cc2)nnc1SCC(=O)Nc1ccccc1`, the “Orco 10 + Orco Angatonist % Reduction” value amounted to 13.06%.

On to `c1ccc(CSc2nnc(-c3cccnc3)n2Cc2ccccc2)cc1`, for which the “Orco 10 + Orco Angatonist % Reduction” value was determined as 16.73%.

Consider `CCn1c(SCC(=O)N2c3ccccc3CCc3ccccc32)nnc1-c1ccc(OC)cc1`, for which the “Orco 10 + Orco Angatonist % Reduction” value came to 41.48%.

In the case of `CCOc1ccccc1-n1c(SCC(=O)N2CCCc3ccccc32)nnc1-c1cccnc1`, the “Orco 10 + Orco Angatonist % Reduction” value is given as 29.87%.

Take `Cc1ccc(-n2c(SCC(=O)NCc3ccc4c(c3)OCO4)nnc2-c2cccnc2)c(C)c1`: the “Orco 10 + Orco Angatonist % Reduction” value came to 31.14%.

For `CCn1c(COc2ccc(C)cc2)nnc1SCC(=O)Nc1cc(OC)ccc1OC`, the “Orco 10 + Orco Angatonist % Reduction” value was found to be 59.64%.

On to `Cc1ccccc1-n1c(SCc2csc(Nc3ccccc3)n2)nnc1-c1cccnc1`, for which the “Orco 10 + Orco Angatonist % Reduction” value is 56.98%.

Take `O=C(CSc1nnc(-c2cccnc2)n1-c1ccc(SC(F)F)cc1)N1CCCc2ccccc21`: the “Orco 10 + Orco Angatonist % Reduction” value was determined as 24.77%.

On to `CCn1c(CNC(=O)c2ccco2)nnc1SCC(=O)Nc1cc(C(F)(F)F)ccc1Cl`, for which the “Orco 10 + Orco Angatonist % Reduction” value came out at 15.97%.

With `C=CCn1c(SCc2cccc3ccccc23)nnc1-c1cccnc1`, the “Orco 10 + Orco Angatonist % Reduction” value is on record as 13.43%.

Regarding `Cc1ccc(Nc2nc(CSc3nnc(-c4cccnc4)n3-c3ccccc3F)cs2)cc1`, the “Orco 10 + Orco Angatonist % Reduction” value was 47.91%.

As for `N#Cc1ccc(CSc2nnc(-c3cccnc3)n2-c2ccccc2)cc1`, the “Orco 10 + Orco Angatonist % Reduction” value was determined as 20.08%.

In the case of `CCn1c(CNC(=O)COc2ccc(C(C)C)cc2)nnc1SCC(=O)Nc1cc(F)ccc1C`, the “Orco 10 + Orco Angatonist % Reduction” value is given as 31.15%.

Regarding `Fc1ccc(CSc2nnc(-c3cccnc3)n2Cc2ccco2)cc1`, the “Orco 10 + Orco Angatonist % Reduction” value is recorded as 16.64%.

With `CCn1c(COc2cccc(OC)c2)nnc1SCC(=O)Nc1ccccc1C(=O)OC`, the “Orco 10 + Orco Angatonist % Reduction” value amounted to 72.23%.

Consider `CCn1c(CNc2ccc(F)cc2)nnc1SCC(=O)N1CCCc2ccccc21`, for which the “Orco 10 + Orco Angatonist % Reduction” value turned out to be 18.47%.

As for `Cc1ccc(-n2c(SCC(=O)NCc3ccco3)nnc2-c2cccnc2)c(C)c1`, the “Orco 10 + Orco Angatonist % Reduction” value was 15.51%.

With `CCn1c(CNC(=O)COc2ccc(C(C)C)cc2)nnc1SCC(=O)Nc1ccccc1C(C)C`, the “Orco 10 + Orco Angatonist % Reduction” value stood at 44.74%.

For `CCn1c(SCC(=O)Nc2ccc(OCc3ccccc3)cc2)nnc1-c1ccco1`, the “Orco 10 + Orco Angatonist % Reduction” value came to 28.44%.

On to `CCn1c(COc2cccc(OC)c2)nnc1SCC(=O)Nc1cc(OC)ccc1OC`, for which the “Orco 10 + Orco Angatonist % Reduction” value is 30.79%.

In the case of `CC(C)c1ccccc1-n1c(SCc2cc(=O)oc3ccc4ccccc4c23)nnc1-c1cccnc1`, the “Orco 10 + Orco Angatonist % Reduction” value is 26.15%.

Consider `O=C(CSc1nnc(-c2cccnc2)n1Cc1ccco1)N1c2ccccc2Sc2ccccc21` [drawing 497], for which the “Orco 10 + Orco Angatonist % Reduction” value is listed as 53.70%.

The same assay, now with this note: Orco 10 + Orco; potentiator mode.
`C=CCn1c(SCc2nc(N)nc(N(C)C)n2)nnc1-c1cccnc1`: the “Orco 10 + Orco Potentiator % increase” value is 17.15%.

Consider `CCn1c(COc2ccc3c(c2)CCCC3)nnc1SCC(=O)Nc1ccc(C(=O)OC)cc1`, for which the “Orco 10 + Orco Potentiator % increase” value amounted to 18.19%.

For the compound `O=C(CSc1nnc(-c2cccnc2)n1-c1ccccc1)NCc1ccc2c(c1)OCO2`, the “Orco 10 + Orco Potentiator % increase” value is 16.29%.

For `Cc1ccccc1-n1c(SC(C)C(N)=O)nnc1-c1cccnc1` (stereo not drawn), the “Orco 10 + Orco Potentiator % increase” value is on record as 16.98%.

Regarding `O=C(CSc1nnc(-c2cccnc2)n1-c1ccccc1)c1c[nH]c2ccccc12`, the “Orco 10 + Orco Potentiator % increase” value was 13.63%.

For the compound `CCn1c(SCC(=O)Nc2cc(C)ccc2C)nnc1-c1cnccn1`, the “Orco 10 + Orco Potentiator % increase” value is on record as 21.48%.
